From patent publication US20250302791A1, “METHOD FOR TREATING AND/OR PREVENTING EPILEPSY AND REDUCING SIDE EFFECT OF ANTI-EPILEPTIC DRUG BY USING CYNARIN” (FU JEN CATHOLIC UNIVERSITY, priority 2024, published 2025)

Key:
[1] = test system: hippocampal CA1/CA3 nerve cells of KA-treated rats; assay: NeuN staining of hippocampal CA1/CA3 nerve cells in KA-treated rats; format: in vivo; settings: Cynarin 10 mg/kg p.o. once daily for 7 days before KA 15 mg/kg i.p.; NeuN staining 72 h after KA
Procedure: In this example, rats were divided into four groups: a control group, a KA-only (15 mg/kg) treatment group, a Cynarin (CYN) (10 mg/kg) plus KA (15 mg/kg) treatment group, and a triple treatment group consisting of Cynarin (CYN) (5 mg/kg), Carbamazepine (CBZ) (50 mg/kg), and KA (15 mg/kg). During the experiment, except for the control group, rats in each group were administered Cynarin orally once daily for seven days. Then, on the eighth day, all experimental groups, except the control group, were further treated by intraperitoneal injection of KA (15 mg/kg).
FIGS. 3A and 3B show the effect of Cynarin (CYN) pretreatment on kainic acid (KA)-induced nerve cell death in the hippocampus of rats. (3A) Representative images of Neuronal nuclei (NeuN) staining at 72 h after KA i.p. injection. (3B) Semiquantitative analysis of NeuN-positive cells in the CA1 and CA3 regions. Data are mean±SEM (n=5 per group). ***, p<0.001 vs. control group. #, p<0.001 vs. KA group.

[2] = test system: KA-induced epilepsy model in rats; assay: kainic acid (KA)-induced seizure behavior in rats, Racine scale scoring (seizure score and latency); format: in vivo, Sprague-Dawley rats
Excerpt: Experimental animals are as follows. Male Sprague-Dawley rats (weight 200-250 g) purchased from BioLASCO in Taipei were housed in the Animal Center of Fu Jen Catholic University and maintained in a 12-h light/dark cycle with food and water available ad libitum. Rats were allowed to acclimate to laboratory conditions for at least 3 days before the start of the experiment.
The experimental design of the present invention is as follows. Cynarin pretreatment reduces epileptic behavior in animals induced by kainic acid (KA). […] Behavioral scoring was based on the Racine scale (1972), see FIG. 1.
Experimental grouping is as follows. […]
The experimental protocol for Racine scale behavioral scoring is as follows. The rats' epileptic seizure activity was continuously monitored for 3 hours, and epileptic behavior was scored according to the 1972 Racine scale. […]
Statistical analysis is as follows. […] Data are expressed as mean±standard error (SEM). Statistical significance was determined by one-way analysis of variation (ANOVA), combined with Bonferroni's post hoc test, and a p-value less than 0.05 was used as the criterion for significant differences.
The rats were pretreated either with normal saline (control), or CYN (0.5-25 mg/kg/day, p.o.), or CBZ (50 or 100 mg/kg/day, p.o.) or CYN 5 mg/kg/day+CBZ 50 mg/kg/day (p.o.) for 7 days before KA injection (15 mg/kg, i.p.). […] Data are expressed as mean±SEM. […]

Compound: O=C(/C=C/c1ccc(O)c(O)c1)O[C@@H]1C[C@@](OC(=O)/C=C/c2ccc(O)c(O)c2)(C(=O)O)C[C@@H](O)[C@@H]1O [CYN, Cynarin]
- KA-induced reduction of the number of hippocampal CA1/CA3 nerve cells (NeuN-positive cells) [1]: can also be reduced
- effect on KA-induced epilepsy (seizure score and latency) ([2]; CYN 0.5 mg/kg/day p.o. for 7 days before KA 15 mg/kg i.p., rats observed 3 h): did not affect the epilepsy induced by KA
- inhibitory effect on epileptic seizure behavior ([2]; CYN 10 mg/kg/day p.o. for 7 days before KA 15 mg/kg i.p., compared with CYN 5 and 25 mg/kg, equivalent to CBZ 100 mg/kg): strongest inhibitory effect on epileptic seizure behavior in animals
